{
  "source": "patent US20180217129A1",
  "about": "“A Method Of Assessing Protein Modification Status And Identifying Biomarkers Linked To Cell Signaling Pathways” (Queen Mary University of London, priority 2015, published 2018)",
  "key": {"[1]": {"tested_on": "off-target kinases (MRC database)", "conditions": "cited from earlier work"}, "[2]": {"tested_on": "off-targets (ChEMBL)", "conditions": "cited from earlier work"}, "[3]": {"tested_on": "parental MCF7 cells", "assay": "Cell proliferation assay (cell counting), parental cells", "assay_type": "cell-based, human", "conditions": "1 μM of inhibitor", "procedure": "(§1) Parental MCF7, G1:3 and K1:3 cell-lines were seeded in 12-well plates at a density of approximately 80,000 cells·well^−1, in biological triplicate. After the indicated time period, cells were washed with PBS, trypsinized and counted using a Beckman Coulter Vi-CELL XR cell counter. Second-order polynomials where fitted to the data using the ggplot2 package (v0.9.3.1) within R (v3.0.0)."}, "[4]": {"tested_on": "MCF7-G and MCF7-K resistant cells", "assay": "Cell proliferation assay (cell counting), resistant cells", "assay_type": "cell-based, human", "conditions": "resistant cell-lines (MCF7-G for GDC-0941, MCF7-K for KU-0063794), 1 μM of inhibitor", "procedure": "MCF7 cells (identity confirmed by genotyping analysis) were routinely maintained in DMEM (supplemented with 10% fetal-bovine serum and 100 U·mL^−1 penicillin/streptomycin) at 37° C. in a humidified atmosphere at 5% CO2. Resistant MCF7 cell-lines, derived from the original parental cells, were obtained by gradually increasing the concentrations of GDC-0941 or KU-0063794 concentrations (starting at 100 nM up to a maximum of 1 μM) over a period of approximately six months. The resultant clones (MCF7-G1:G3 and MCF7-K1:K3) were then routinely maintained as above in the presence of either 1 μM GDC-0941 or KU-0063794 (in DMSO) for MCF7-G and MCF7-K cells, respectively.\nas §1"}, "[5]": {"tested_on": "MCF7 cells", "assay": "Growth factor stimulation phosphoproteomics (CTAM group dynamics, KSEA)", "assay_type": "cell-based, human", "conditions": "stimulation for 5 min, relative to 0 minute control", "procedure": "Cells were split and seeded at 4×10^5 cells·plate^−1, 72 hours prior to the experiment. The medium in each plate was replaced 24 hours prior to the experiment. Each experiment was performed in biological duplicate. For the network definition experiments, cells were treated with each of the inhibitors or vehicle (DMSO) for 1 hour (Table 1). For the growth factor stimulation experiments, cells were starved for 24h and were subsequently treated with either 50 ng·mL^−1 EGF or IGF for 0, 5, 10, 30, or 60 minutes. For the resistant cell-line experiments, no additional treatments were performed. […]\nThe abundance of each of the identified markers was monitored systematically using KSEA (kinase-substrate enrichment analysis), as described previously (1). […] The mean of the log2 fold-ratios (versus control) of the phosphorylation sites representing each CTAM group were then calculated alongside the standard deviation (δ) for each mean. The significance of enrichment was then determined using a Z-score based approach and expressed as P-values, using the following formula: Z=(Sm−μt)·m^1/2/δt; where Sm=mean of the CTAM group log2 fold-ratios; μt=mean of the total dataset log2 ratios; m=number of individual phosphopeptides within the CTAM group; and δt=standard deviation of the total dataset log2 ratios (vs control) (19). […]"}},
  "note": "Where two headings read alike, the source gives them in different places.",
  "data": [
    {"compound": "O=c1[nH]c2ccccc2n1C1CCN(Cc2ccc(-c3nc4cc5[nH]cnc5cc4nc3-c3ccccc3)cc2)CC1", "note": "[Akt inhibitor VIII]", "values": [
      {"measurement": "Off-targets from MRC database (>50% inhibition at given concentration)", "setting": "[1]; 1 μM", "value": "CAMK1 (1 μM)"}
    ]},
    {"compound": "CN(C)CCCn1cc(C2=C(c3c[nH]c4ccccc34)C(=O)NC2=O)c2ccccc21", "note": "[Bisindolylmaleimide-I]", "values": [
      {"measurement": "Off-targets from ChEMBL", "setting": "[2]", "value": "CDK4/CCND1, and GSK3β, and PIM1"}
    ]},
    {"compound": "Nc1[nH]nc2nnc(-c3c(-c4ccccc4)nn4ccccc34)cc12", "note": "[ERK inhibitor II]", "values": [
      {"measurement": "Off-targets from ChEMBL", "setting": "[2]", "value": "MAPK14"}
    ]},
    {"compound": "CS(=O)(=O)N1CCN(Cc2cc3nc(-c4cccc5[nH]ncc45)nc(N4CCOCC4)c3s2)CC1", "note": "[GDC-0941]", "values": [
      {"measurement": "proliferation in the presence of inhibitor", "setting": "[3]", "value": "unable to do so"},
      {"measurement": "proliferation in the presence of inhibitor", "setting": "[4]", "value": "able to proliferate"},
      {"measurement": "Off-targets from MRC database (>50% inhibition at given concentration)", "setting": "[1]; 1 μM", "value": "CLK2 (1 μM)"}
    ]},
    {"compound": "Cn1c2ccccc2c2c3c(c4c5ccccc5n(CCC#N)c4c21)CNC3=O", "note": "[Go-6976]", "values": [
      {"measurement": "Off-targets from ChEMBL", "setting": "[2]", "value": "PKD1"}
    ]},
    {"compound": "Cc1cncc2cccc(S(=O)(=O)N3CCCNC[C@@H]3C)c12", "note": "[H-1152]", "values": [
      {"measurement": "Off-targets from ChEMBL", "setting": "[2]", "value": "PKA"}
    ]},
    {"compound": "CN([C@@H](Cc1ccc(OS(=O)(=O)c2cccc3cnccc23)cc1)C(=O)N1CCN(c2ccccc2)CC1)S(=O)(=O)c1cccc2cnccc12", "note": "[KN-62, 1-N,O-bis(5-isoquinolinesulfonyl)-N-methyl-L-tyrosyl-4-phenylpiperazin E]", "values": [
      {"measurement": "Off-targets from MRC database (>50% inhibition at given concentration)", "setting": "[1]; 10 μM", "value": "PRAK and CAMK1 and DYRK1A and Lck"},
      {"measurement": "Off-targets from ChEMBL", "setting": "[2]", "value": "P2RX7"}
    ]},
    {"compound": "COc1ccc(S(=O)(=O)N(CCO)c2ccccc2CN(C)C/C=C/c2ccc(Cl)cc2)cc1", "note": "[KN-93]", "values": [
      {"measurement": "Off-targets from MRC database (>50% inhibition at given concentration)", "setting": "[1]; 10 μM", "value": "TrkA and smMLCK"}
    ]},
    {"compound": "COc1ccc(-c2ccc3c(N4CCOCC4)nc(N4C[C@@H](C)O[C@@H](C)C4)nc3n2)cc1CO", "note": "[KU-0063794]", "values": [
      {"measurement": "proliferation in the presence of inhibitor", "setting": "[3]", "value": "unable to do so"},
      {"measurement": "proliferation in the presence of inhibitor", "setting": "[4]", "value": "able to proliferate"}
    ]},
    {"compound": "C=CC(=O)Nc1ccc2ncnc(Nc3cccc(Br)c3)c2c1", "note": "[PD-168393]", "values": [
      {"measurement": "Off-targets from ChEMBL", "setting": "[2]", "value": "ERBB2/4, and BMX and BTK and BLK and JAK3"}
    ]},
    {"compound": "CCc1cncnc1N1CCN(Cc2nc3ccc(C(F)(F)F)cc3[nH]2)CC1", "note": "[PF-4708671]", "values": [
      {"measurement": "Off-targets from MRC database (>50% inhibition at given concentration)", "setting": "[1]; 1 μM", "value": "MSK1 and RSK1"}
    ]},
    {"compound": "Oc1cccc(-c2nc(N3CCOCC3)c3oc4ncccc4c3n2)c1", "note": "[PI-103]", "values": [
      {"measurement": "Off-targets from ChEMBL", "setting": "[2]", "value": "mTOR, and DNA-PK, and Akt1"}
    ]},
    {"compound": "N#CC(=C(/N)Sc1ccccc1N)/C(C#N)=C(\\N)Sc1ccccc1N", "note": "[U0126]", "values": [
      {"measurement": "Off-targets from MRC database (>50% inhibition at given concentration)", "setting": "[1]; 10 μM", "value": "MKK1 (10 μM)"}
    ]},
    {"compound": "C[C@@H](N)[C@H]1CC[C@H](C(=O)Nc2ccncc2)CC1", "note": "[Y-27632]", "values": [
      {"measurement": "Off-targets from MRC database (>50% inhibition at given concentration)", "setting": "[1]; 1 μM", "value": "PHK and MST2 and RSK2 and MSK1 and MNK1 and RSK1 and AMPK and PRK2"},
      {"measurement": "Off-targets from ChEMBL", "setting": "[2]", "value": "PKCε"}
    ]},
    {"compound": "IGF-1: Human recombinant IGF-1 (100-11) purchased from Peprotech", "values": [
      {"measurement": "EGFR-MEK CTAM group phosphorylation", "setting": "[5]", "value": "significant, acute up-regulation"}
    ]}
  ]
}
